Source: ChEMBL document CHEMBL5724914, “Linking interpersonal differences in gut microbiota composition and drug biotransformation activity” (2024)

How the values were obtained:
[1] = human gut metagenome, 24 h, 2 µM
[2] = The drug is tested on WLS-010 corresponding to human gut metagenome with ENA study accession number: PRJEB37062 and ENA sample accession number: ERS12561743 for biotransformation under anaerobic condition. The drug concentrations were measured over 9 timepoints collected between 0 and 24 hours of incubation by liquid-chromatography-coupled mass spectrometry (LC–MS); settings: 2 µM
[3] = The drug is tested on WLS-350 corresponding to human gut metagenome with ENA study accession number: PRJEB37062 and ENA sample accession number: ERS12561789 for biotransformation under anaerobic condition. The drug concentrations were measured over 9 timepoints collected between 0 and 24 hours of incubation by liquid-chromatography-coupled mass spectrometry (LC–MS); settings: 2 µM
[4] = human gut metagenome, 24 h, 2 µM; remark: listed apart in the source
[5] = human gut metagenome, 24 h, 2 µM; remark: listed apart in the source
[6] = The drug is tested on WLS-052 corresponding to human gut metagenome with ENA study accession number: PRJEB37062 and ENA sample accession number: ERS12561747 for biotransformation under anaerobic condition. The drug concentrations were measured over 9 timepoints collected between 0 and 24 hours of incubation by liquid-chromatography-coupled mass spectrometry (LC–MS); settings: 2 µM
[7] = The drug is tested on Z-009 corresponding to pig gut metagenome with ENA study accession number: PRJEB37062 and ENA sample accession number: ERS12561809 for biotransformation under anaerobic condition. The drug concentrations were measured over 9 timepoints collected between 0 and 24 hours of incubation by liquid-chromatography-coupled mass spectrometry (LC–MS); settings: 2 µM
[8] = The drug is tested on Z-007 corresponding to rat gut metagenome with ENA study accession number: PRJEB37062 and ENA sample accession number: ERS12561807 for biotransformation under anaerobic condition. The drug concentrations were measured over 9 timepoints collected between 0 and 24 hours of incubation by liquid-chromatography-coupled mass spectrometry (LC–MS); settings: 2 µM
[9] = The drug is tested on Z-016 corresponding to mouse gut metagenome with ENA study accession number: PRJEB37062 and ENA sample accession number: ERS12561815 for biotransformation under anaerobic condition. The drug concentrations were measured over 9 timepoints collected between 0 and 24 hours of incubation by liquid-chromatography-coupled mass spectrometry (LC–MS); settings: 2 µM
[10] = The drug is tested on WLS-090 corresponding to human gut metagenome with ENA study accession number: PRJEB37062 and ENA sample accession number: ERS12561753 for biotransformation under anaerobic condition. The drug concentrations were measured over 9 timepoints collected between 0 and 24 hours of incubation by liquid-chromatography-coupled mass spectrometry (LC–MS); settings: 2 µM
[11] = human gut metagenome, 24 h, 2 µM; remark: listed apart in the source
[12] = The drug is tested on Z-019 corresponding to rat gut metagenome with ENA study accession number: PRJEB37062 and ENA sample accession number: ERS12561818 for biotransformation under anaerobic condition. The drug concentrations were measured over 9 timepoints collected between 0 and 24 hours of incubation by liquid-chromatography-coupled mass spectrometry (LC–MS); settings: 2 µM
[13] = The drug is tested on Z-008 corresponding to metagenome with ENA study accession number: PRJEB37062 and ENA sample accession number: ERS12561808 for biotransformation under anaerobic condition. The drug concentrations were measured over 9 timepoints collected between 0 and 24 hours of incubation by liquid-chromatography-coupled mass spectrometry (LC–MS); settings: 2 µM
[14] = human gut metagenome, 24 h, 2 µM; remark: listed apart in the source
[15] = human gut metagenome, 24 h, 2 µM; remark: listed apart in the source
[16] = human gut metagenome, 24 h, 2 µM; remark: listed apart in the source
[17] = The drug is tested on Z-017 corresponding to mouse gut metagenome with ENA study accession number: PRJEB37062 and ENA sample accession number: ERS12561816 for biotransformation under anaerobic condition. The drug concentrations were measured over 9 timepoints collected between 0 and 24 hours of incubation by liquid-chromatography-coupled mass spectrometry (LC–MS); settings: 2 µM
[18] = human gut metagenome, 24 h, 2 µM; remark: listed apart in the source
[19] = The drug is tested on Z-005 corresponding to metagenome with ENA study accession number: PRJEB37062 and ENA sample accession number: ERS12561805 for biotransformation under anaerobic condition. The drug concentrations were measured over 9 timepoints collected between 0 and 24 hours of incubation by liquid-chromatography-coupled mass spectrometry (LC–MS); settings: 2 µM
[20] = The drug is tested on WLS-098 corresponding to human gut metagenome with ENA study accession number: PRJEB37062 and ENA sample accession number: ERS12561754 for biotransformation under anaerobic condition. The drug concentrations were measured over 9 timepoints collected between 0 and 24 hours of incubation by liquid-chromatography-coupled mass spectrometry (LC–MS); settings: 2 µM
Further: call rule not given here.

SMILES | Bacterial Biotransformation [1] | Bacterial Biotransformation [2] | Bacterial Biotransformation [3] | Bacterial Biotransformation [4] | Bacterial Biotransformation [5] | Bacterial Biotransformation [6] | Bacterial Biotransformation [7] | Bacterial Biotransformation [8] | Bacterial Biotransformation [9] | Bacterial Biotransformation [10] | Bacterial Biotransformation [11] | Bacterial Biotransformation [12] | Bacterial Biotransformation [13] | Bacterial Biotransformation [14] | Bacterial Biotransformation [15] | Bacterial Biotransformation [16] | Bacterial Biotransformation [17] | Bacterial Biotransformation [18] | Bacterial Biotransformation [19] | Bacterial Biotransformation [20]
CC(C)NCC(O)COc1ccc(CC(N)=O)cc1 (stereo not given) [ATENOLOL] | Compound NOT metabolized | Compound NOT metabolized | Compound NOT metabolized | Compound NOT metabolized | Compound NOT metabolized | Compound NOT metabolized | Compound NOT metabolized | Compound NOT metabolized | Compound NOT metabolized | Compound metabolized | Compound NOT metabolized | Compound NOT metabolized | Compound NOT metabolized | Compound NOT metabolized | Compound metabolized | Compound NOT metabolized | Compound NOT metabolized | Compound metabolized | Compound NOT metabolized | Compound metabolized
CN(C)CCC=C1c2ccccc2COc2ccccc21 [DOXEPIN] | Compound NOT metabolized | Compound NOT metabolized | Compound NOT metabolized | Compound NOT metabolized | Compound metabolized | Compound NOT metabolized | Compound metabolized | Compound NOT metabolized | Compound NOT metabolized | Compound metabolized | Compound NOT metabolized | Compound NOT metabolized | Compound NOT metabolized | Compound NOT metabolized | Compound metabolized | Compound metabolized | Compound NOT metabolized | Compound NOT metabolized | Compound NOT metabolized | Compound metabolized

Now from value to compound:

Bacterial Biotransformation [1] | Bacterial Biotransformation [2] | Bacterial Biotransformation [3] | Bacterial Biotransformation [4] | Bacterial Biotransformation [5] | Bacterial Biotransformation [6] | Bacterial Biotransformation [7] | Bacterial Biotransformation [8] | Bacterial Biotransformation [9] | Bacterial Biotransformation [10] | Bacterial Biotransformation [11] | Bacterial Biotransformation [12] | Bacterial Biotransformation [13] | Bacterial Biotransformation [14] | Bacterial Biotransformation [15] | Bacterial Biotransformation [16] | Bacterial Biotransformation [17] | Bacterial Biotransformation [18] | Bacterial Biotransformation [19] | Bacterial Biotransformation [20] | SMILES
Compound metabolized | Compound metabolized | Compound metabolized | Compound metabolized | Compound metabolized | Compound metabolized | Compound metabolized | Compound NOT metabolized | Compound metabolized | Compound metabolized | Compound metabolized | Compound NOT metabolized | Compound metabolized | Compound metabolized | Compound metabolized | Compound metabolized | Compound metabolized | Compound metabolized | Compound metabolized | Compound metabolized | CC(=O)OCC(=O)[C@@]1(OC(C)=O)[C@@H](C)C[C@H]2[C@@H]3C[C@H](F)C4=CC(=O)C=C[C@]4(C)[C@@]3(F)[C@@H](O)C[C@@]21C [DIFLORASONE DIACETATE]
Compound metabolized | Compound metabolized | Compound NOT metabolized | Compound metabolized | Compound metabolized | Compound metabolized | Compound metabolized | Compound NOT metabolized | Compound metabolized | Compound NOT metabolized | Compound NOT metabolized | Compound NOT metabolized | Compound metabolized | Compound NOT metabolized | Compound metabolized | Compound metabolized | Compound metabolized | Compound metabolized | Compound metabolized | Compound NOT metabolized | C[C@]12CCC(=O)C=C1[C@@H]1C[C@@H]1[C@H]1[C@@H]3[C@@H]4C[C@@H]4[C@@]4(CCC(=O)O4)[C@@]3(C)CC[C@@H]12 [DROSPIRENONE]
Compound metabolized | Compound metabolized | Compound metabolized | Compound metabolized | Compound metabolized | Compound metabolized | Compound metabolized | Compound metabolized | Compound metabolized | Compound metabolized | Compound metabolized | Compound NOT metabolized | Compound metabolized | Compound metabolized | Compound metabolized | Compound metabolized | Compound metabolized | Compound metabolized | Compound metabolized | Compound metabolized | C#C[C@]1(OC(C)=O)CC[C@H]2[C@@H]3CCC4=C[C@@H](OC(C)=O)CC[C@@H]4[C@H]3CC[C@@]21C [ETHYNODIOL DIACETATE]
